Source: patent US11298314B2, “Injectable composition for localized fat reduction without pain, edema, and side effects, and method for preparing same” (AMI PHARM CO., LTD., priority 2017, dated 2022)

What was measured:
paw of the rats = assay: Rat paw edema; assay type: in vivo, Sprague Dawley rats; conditions: for degree of edema in words: 2 hours after administration, rat paw; for degree of edema, 1 hour after administration / degree of edema, 2 hours after administration / degree of edema, Immediately after administration: 0.1 ml into rat paw
In short: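 Male Sprague Dawley rats (6 weeks old, 170–200 g) received 0.1 ml of PBS or test composition into the paw. Paw thickness measured by caliper before, immediately after, and 1 or 2 h post-injection; edema graded 0–4, with injection-site skin lesions photographed.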

sole of the rat paws = assay: Measurement of skin lesion (erythema) on rat paw; assay type: in vivo, Sprague Dawley rats;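 note: grades − to ++++ mean no to extremely severe erythema versus before injection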
In short: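 Male Sprague Dawley rats (6 weeks, 170–200 g) received 0.1 ml test composition or PBS injected into the paw. Paw thickness measured by caliper before, immediately after, and 1 or 2 h post-injection; sole lesions photographed and graded 0–4.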

[1] = test system: tissues of the injected area (rat paw); assay: H&E staining histological test (inflammation) of injected rat paw; assay type: in vivo, Sprague Dawley rats
Procedure: The tissues of the injected area were dissected, fixed with 10% formalin, and then the specimen was prepared and images were captured using an optical microscope. The degree of inflammation was evaluated as follows.

3T3-L1 adipocytes = assay: Adipocyte (3T3-L1) reducing effect, MTT assay; assay type: cell-based; conditions: 24 to 96 hours, various concentrations
Procedure: Tests were performed to compare the adipocyte reducing activity of the PPC single composition and the PPC composition solubilized with bile acids. Differentiated 3T3L-1 adipocyte lines were used to observe adipocyte reduction activity, and cell viability was monitored by MTT assay. […] Materials and methods employed in the following experiments are described below. In the following, % of the composition refers to % (w/v).
The specific test methods are as follows. […] The cells were washed twice with PBS, treated with MTT reagent (50 μl) and left at 37° C. for 2 hours. After removing the supernatant, MTT formazan crystals were dissolved in DMSO and the absorbance was measured at 540 nm using a microplate reader.
The 3T3-L1 adipocyte (ATCC) was cultured in Dulbecco's modified eagle medium (DMEM) (Invitrogen) supplemented with 10% fetal bovine serum, 100 units/ml penicillin and 100 μg/ml streptomycin under the condition of 5% CO2 and 37° C. […] Subsequently, the medium was replaced with DMEM medium containing 1 μg/ml insulin (Sigma), and the culture medium was maintained and changed every 2 to 3 days until the degree of differentiation reaches maximum. If it took more than 7 days, the cells were kept in normal DMEM culture medium until starting the tests. […] After the cells were incubated for 3 hours under the condition of 37° C. and 5% CO2, the MTT solution was removed.

[2] = Formulation stability of PPC injectable preparations: property, transparency, particle size, pH
Procedure: The particle size was measured using a nano particle size analyzer (Microtrac Wave, MICROTRACT, USA). […] The transparency was measured using a spectrophotometer (CM-3600d, KONICA MINOLTA, JAPAN). The pH was measured with a pH meter (ST3100, OHAUS, GERMANY), and the isotonicity was measured with an osmotic pressure meter (Vapro 5600, Elitech Group, Tokyo, Japan), and viscosity was analyzed using a viscometer (Digital Viscometer CL-2, CAS, Korea).
The washed and sterilized preparation tank was charged with the water for injection (at room temperature), and phosphatidylcholine (PPC) and benzyl alcohol were added thereto, and the mixture was stirred at 200 RPM for 2 hours under the condition of nitrogen pressure, shading and room temperature. After the completion of stirring, the mixture was transferred to an ultra-high pressure homogenizer (Nano Disperser NLM100, Ilshin Autoclave, Korea) with a nitrogen pressure. Ultra-high pressure homogenization (dispersion) was carried out at 12,000 psi for 7 cycles, and the particles were finely pulverized. Then, the pH was adjusted. After filtration through a 0.2 μm filter, the vial was filled and sealed.
Specifically, the water for injection was put into the preparation tank which was cleaned and sterilized (room temperature), and sodium hydroxide was added to the water for injection. Then deoxycholic acid and benzyl alcohol were added, stirred and dissolved. Then, phosphatidylcholine was added thereto, and the mixture was stirred at 200 RPM for about 24 hours under shading, sealing, room temperature (25° C.), and nitrogen pressure. After completion of the stirring, the pH was adjusted (if necessary, with additional sodium hydroxide or hydrochloric acid), and it was filtered through a 0.2 μm filter, and filled into the vial and sealed.
Then glycocholic acid and benzyl alcohol were added, stirred and dissolved. Then, phosphatidylcholine was added thereto, and the mixture was stirred at 200 RPM for about 24 hours under shading, sealing, room temperature (25° C.), and nitrogen pressure. After completion of the stirring, the pH was adjusted (if necessary, with additional sodium hydroxide or 0.001-0.6% of hydrochloric acid), and it was filtered through a 0.2 μm filter, and filled into the vial and sealed.
The formulation stability of the PPC injectable compositions solubilized with glycocholic acid (GCA) in Tables 3 and 4 was evaluated immediately after the preparation and 30 days after the preparation (refrigerated storage).

[3] = bile acid single composition 1.0% (w/v)
[4] = bile acid single composition 2.5% (w/v)
[5] = bile acid single composition 5.0% (w/v)
[6] = bile acid single composition 7.5% (w/v)

Structure (SMILES): C[C@H](CCC(=O)NCCS(=O)(=O)O)[C@H]1CC[C@H]2[C@@H]3[C@@H](O)C[C@@H]4C[C@H](O)CC[C@]4(C)[C@H]3CC[C@]12C [TUDCA, 2-[[(4R)-4-[(3R,5S,7S,8R,9S,10S,13R,14S,17R)-3,7-dihydroxy-10,13-dimethyl-2,3,4,5,6,7,8,9,11,12,14,15,16,17-tetradecahydro-1H-cyclopenta[a]phenanthren-17-yl]pentanoyl]amino]ethanesulfonic acid]
- degree of edema in words (paw of the rats; listed as TUCA 1.0%): Mild
- degree of edema in words (paw of the rats; listed as TUCA 2.5%): Mild
- degree of edema in words (paw of the rats; listed as TUDCA 1.0%): mild
- degree of edema in words (paw of the rats; listed as TUDCA 2.5%): mild
- degree of edema in words (paw of the rats; listed as TUDCA 5.0%): moderate
- degree of edema in words (paw of the rats; listed as TUDCA 7.5%): Moderate
- degree of edema, 1 hour after administration (paw of the rats; [3]): + (mild edema [+, (the degree of swelling was 1-20% compared to before the injection)])
- degree of edema, 2 hours after administration (paw of the rats; [3]): + (mild edema [+, (the degree of swelling was 1-20% compared to before the injection)])
- degree of edema, Immediately after administration (paw of the rats; [3]): ++ (moderate edema [++, (the degree of swelling was 20-40% compared to before the injection)])
- degree of edema, 1 hour after administration (paw of the rats; [4]): + (mild edema [+, (the degree of swelling was 1-20% compared to before the injection)])
- degree of edema, 2 hours after administration (paw of the rats; [4]): + (mild edema [+, (the degree of swelling was 1-20% compared to before the injection)])
- degree of edema, Immediately after administration (paw of the rats; [4]): ++ (moderate edema [++, (the degree of swelling was 20-40% compared to before the injection)])
- degree of edema, 1 hour after administration (paw of the rats; [5]): + (mild edema [+, (the degree of swelling was 1-20% compared to before the injection)])
- degree of edema, 2 hours after administration (paw of the rats; [5]): ++ (moderate edema [++, (the degree of swelling was 20-40% compared to before the injection)])
- degree of edema, Immediately after administration (paw of the rats; [5]): ++ (moderate edema [++, (the degree of swelling was 20-40% compared to before the injection)])
- degree of edema, 1 hour after administration (paw of the rats; [6]): ++ (moderate edema [++, (the degree of swelling was 20-40% compared to before the injection)])
- degree of edema, 2 hours after administration (paw of the rats; [6]): ++ (moderate edema [++, (the degree of swelling was 20-40% compared to before the injection)])
- degree of edema, Immediately after administration (paw of the rats; [6]): ++ (moderate edema [++, (the degree of swelling was 20-40% compared to before the injection)])
- grade of skin lesion (erythema), 1 hour after administration (sole of the rat paws; [3]): −
- grade of skin lesion (erythema), 2 hours after administration (sole of the rat paws; [3]): −
- grade of skin lesion (erythema), Immediately after administration (sole of the rat paws; [3]): −
- grade of skin lesion (erythema), 1 hour after administration (sole of the rat paws; [4]): −
- grade of skin lesion (erythema), 2 hours after administration (sole of the rat paws; [4]): −
- grade of skin lesion (erythema), Immediately after administration (sole of the rat paws; [4]): −
- grade of skin lesion (erythema), 1 hour after administration (sole of the rat paws; [5]): −
- grade of skin lesion (erythema), 2 hours after administration (sole of the rat paws; [5]): −
- grade of skin lesion (erythema), Immediately after administration (sole of the rat paws; [5]): −
- grade of skin lesion (erythema), 1 hour after administration (sole of the rat paws; [6]): −
- grade of skin lesion (erythema), 2 hours after administration (sole of the rat paws; [6]): −
- grade of skin lesion (erythema), Immediately after administration (sole of the rat paws; [6]): −
- Inflammation (H&E), BA % (w/v) 1.0 ([1]; bile acid single composition 1.0% (w/v), injected rat paw): −
- Inflammation (H&E), BA % (w/v) 2.5 ([1]; bile acid single composition 2.5% (w/v), injected rat paw): −
- Inflammation (H&E), BA % (w/v) 5.0 ([1]; bile acid single composition 5.0% (w/v), injected rat paw): −
- Inflammation (H&E), BA % (w/v) 7.5 ([1]; bile acid single composition 7.5% (w/v), injected rat paw): +
- degree of inflammation (H&E) in words ([1]; rats sacrificed at 3 hours, injected paw): Mild
- adipocyte viability / adipocyte-reducing activity (3T3-L1 adipocytes): inhibits the adipocyte apoptosis and degradation
- bile acid/PPC molar ratio below which a substantially stable formulation did not occur ([2]; PPC 5.0%): less than 1.29
- bile acid concentration at which stable injectable preparations can be made ([2]; based on PPC 5.0%): ≥ 4.0%
